According to patent US11293870B2, “Vital stain” (Mie University, priority 2013, dated 2022):
Entries after “also recorded” stand apart in the source; their conditions may differ. Where two headings read alike, the source gives them in different places.

Assays:
[1] = system: epithelial cells/adenocytes and connective tissue/capillaries; experiment: Preferential staining of epithelial cells/adenocytes or connective tissue/capillaries; format: in vivo, mouse; details: 5 mg/ml for curcumin, 1 mg/ml for all other dyes
Experimental: A metal ring (outer diameter: 16 millimeters, inner diameter, 6 millimeters) was placed on a laboratory stage, and a rapid bonding adhesive (AronAlpha) was coated over the entire periphery of the ring surface on one side. Forceps were used to hold the rapid bonding adhesive-coated metal ring with the adhesive-coated surface facing downward, and it was set on the pronase-treated mucosal surface. During a period of about 5 minutes, the metal ring became anchored to the mucosa with the rapid bonding adhesive, and the region where the dye compound was to be applied was rinsed with PBS.
In order to avoid drying of the mucosal surface, a curcumin stock solution or sulfuretin stock solution diluted with physiological saline (PBS) (see Tables 1 to 3 for the dilution factors) was added dropwise onto the pronase-treated mucosal surface, and after allowing it to stand for 1 minute, it was rinsed 3 times with PBS, a cover glass was placed over the metal ring, and the objective lens of a multiphoton laser microscope (FV1000 MPE by Olympus Corp.) was brought near to the top of the cover glass for image observation.
The procedure from administration of the dye compound to observation was conducted as described above under “Evaluation of stainability” (same hereunder). Also, the administered concentration of dye to the mucosal surface was 5 mg/ml for curcumin as Dye No. 1, and 1 mg/ml for all of the other dyes.

[2] = system: MDCK-GFP-Ras^V12 cells mixed with MDCK normal cells; experiment: In vitro assay of MDCK-Ras^V12 cancerized cell small aggregates as a very early cancer model; format: cell-based, canine
Experimental: The MDCK normal cells were cultured in a 10 cm dish, and the MDCK-GFP-Ras^V12 cells were cultured in a 6 cm dish. The culture solution used for the MDCK normal cells was DMEM (containing Phenol Red)+10% FBS+penicillin/streptomycin.
The solution used for the MDCK-GFP-Ras^V12 cells was DMEM (containing Phenol Red)+10% FBS+penicillin/streptomycin+Zeocin (400 μg/ml)+blasticidin (5 μg/ml). […] The seeding was carried out using a DMEM+10% FBS+penicillin/streptomycin culture solution, to 1.0 to 3.0×10^4 cells per well of the 96-well dish. Tetracycline at a concentration of 2 μg/ml was added to the culture solution after 4 days when seeding was to 1.0×10^4 or after 1 day when seeding was to 3.0×10^4, and GFP-Ras^V12 was expressed, forming cancerized cell small aggregates among the MDCK normal cells (NPL 3). After 18 to 36 hours, the cells in each of the wells were rinsed 3 times with 200 μl of PBS, and then the Prestwick Chemical Library compounds and the Ministry of Health, Labour and Welfare-approved food additives, each diluted to 1 μM with a 100 μl volume of PBS, were added to the respective wells and taken up by the cells for 5 minutes at room temperature. They were then rinsed 3 times with 200 μl of PBS, and in certain cases further rinsed once with 100 μl of DMEM without Phenol Red, and observed under a multiphoton laser microscope.

Pluripotent hepatocytes = experiment: Undifferentiated cell staining of pluripotent hepatocytes; format: cell-based
Source text: Pluripotent stem cells such as iPS cells, ES cells or tissue-derived stem cells are considered promising for application and development in regenerative medicine, and for example, when a cell population is to be formed from iPS cells, differentiated into tissue cells that are destined to be transplanted, it is currently the case that iPS cell-derived differentiation-induced tissue cell populations partially contain undifferentiated cells that have not completely differentiated to the desired tissue cells, cells that have differentiated to cells other than the desired tissue cells, and the original iPS cells that have undergone essentially no differentiation. It has been pointed out that when such undifferentiated cells or original iPS cells are transplanted as is into the body, they can potentially become cancerated in the future. Thus, when an iPS cell-derived differentiation-induced tissue cell population is to be used for transplantation, undifferentiated cells or original iPS cells remaining in the transplanted cell population are preferably identified and confirmed, and also eliminated.

[3] = cited from earlier work
[4] = system: cancer lesion site versus normal mucosa of large intestine; experiment: Comparison of staining patterns in normal site and cancer tumor site of large intestine; format: in vivo, mouse; details: for Staining of cancer lesion sites compared with normal mucosa: Example 1, regardless of pronase treatment of the mucosal surface; for Staining of cancer lesion site compared with normal mucosa: Example 3
Experimental: Drinking water containing 2% (w/v) dextran sodium sulfate (DSS) was given to 8-week-old C57B6 mice (male, approximately 20 g) for 7 days. After intraperitoneal injection of 0.2 ml of 5% chloral hydrate for anesthesia, the mouse abdominal wall was incised vertically to about 1 cm, and the gastrointestinal tract was raised over the abdominal wall to about 1 cm. Blood flow to the gastrointestinal tract was maintained during this time by the blood vessel flowing into the mesenteric attachment site. The gastrointestinal tract was incised vertically to about 1 cm on the opposite side of the mesenteric attachment site, including the tunica muscularis and mucosa. The opposite side of the mesenteric attachment site was incised in order to prevent severance and damage of the blood vessel and minimize bleeding. When the incision site of the gastrointestinal tract was opened vertically, the mucosal surface of the gastrointestinal tract, as the food channel, became visible. When food digestion products were present they were wiped off with tissue paper. In order to more clearly observe the gastrointestinal tract mucosal surface, a 1% pronase solution was dropped onto the mucosal surface and was allowed to stand still for 15 minutes. This pronase treatment removed the mucus from the mucosal surface, rendering the cell structure more easily visible. Next, the pronase was removed from the mucosal surface and rinsed with physiological saline (PBS). A metal ring (outer diameter: 16 millimeters, inner diameter, 6 millimeters) was placed on a laboratory stage, and a rapid bonding adhesive (AronAlpha) was coated over the entire periphery of the surface on one side. Forceps were used to hold the rapid bonding adhesive-coated metal ring with the adhesive-coated surface facing downward, and it was set on the pronase-treated mucosal surface. During a period of about 5 minutes, the metal ring became anchored to the mucosa with the rapid bonding adhesive, and the region where the dye compound was to be applied was rinsed with PBS. […] FIG. 32 is a drawing for illustration of a stainability evaluation step for the aforementioned dye compounds. […] Z stack image). […] Both of the staining photographs of the normal site and cancer tumor site were taken under the same conditions.

[5] = system: human gastric mucosa (normal site and stomach cancer site); experiment: Staining of surgically excised fresh human gastric mucosa; details: laser power of 1%
Source text: Similar staining also occurred with surgically excised fresh human gastric mucosa. […] The centers of the circular structures are the exits of the fundic glands. It was thus possible to confirm the characteristic of normal tissue whereby epithelial cells arrange in a circular manner without disparate sizes. […] The blackened elliptical portions in each cell are the nuclei.

mucosal surfaces = experiment: Photon dose necessary to obtain fluorescent images of dye-coated mucosal surfaces; format: in vivo, mouse; details: mucosal surfaces coated with dye
Large intestine = experiment: Evaluation of dye compound stainability under multiphoton laser microscope, large intestine mucosal surface; format: in vivo; details: mucosal surface of mouse large intestine; 5 mg/ml for curcumin, 1 mg/ml for other dyes
Experimental: Drinking water containing 2% (w/v) dextran sodium sulfate (DSS) was given to 8-week-old C57B6 mice (male, approximately 20 g) for 7 days. After intraperitoneal injection of 0.2 ml of 5% chloral hydrate for anesthesia, the mouse abdominal wall was incised vertically to about 1 cm, and the gastrointestinal tract was raised over the abdominal wall to about 1 cm. Blood flow to the gastrointestinal tract was maintained during this time by the blood vessel flowing into the mesenteric attachment site. The gastrointestinal tract was incised vertically to about 1 cm on opposite side of the mesenteric attachment site, including the tunica muscularis and mucosa. The opposite side of the mesenteric attachment site was incised in order to prevent severance and damage of the blood vessel and minimize bleeding. When the incision site of the gastrointestinal tract was opened vertically, the mucosal surface of the gastrointestinal tract, as the food channel, became visible. When food digestion products were present they were wiped off with tissue paper.
In order to more clearly observe the gastrointestinal tract mucosal surface, a 1% pronase solution was dropped onto the mucosal surface and was allowed to stand still for 15 minutes. This pronase treatment removed the mucus from the mucosal surface, rendering the cell structure more easily visible. […]

[6] = system: mouse bladder epithelial cells; experiment: Multiphoton laser microscope imaging of stained bladder epithelial cells; details: laser power of 3%
[7] = system: mouse tracheal epithelial cells; experiment: Multiphoton laser microscope imaging of stained tracheal epithelial cells; details: laser power of 3%
[8] = without pronase treatment, cancer 2 to 4 millimeters in diameter

SMILES	Cell group preferentially stained (epithelial cells/adenocytes or connective tissue/capillaries) [1]	Cancer cell staining intensity relative to normal cell staining intensity ([2]; FIG. 19)	Staining of GFP-Ras^V12 positive cancerized cells versus MDCK normal cells ([2]; Ministry of Health, Labour and Welfare-approved food additives, 1 mg/ml, excitation 750, 800, 850, 900 nm, red fluorescence)	Staining of pluripotent hepatocytes (Pluripotent hepatocytes)	LD50 ([3]; Mouse, Intra-abdominal)	Staining of cancer lesion sites compared with normal mucosa [4]	Staining of cancer lesion site compared with normal mucosa ([4]; after 15 minutes treatment with 1% pronase MS)	Staining of cancer lesion site compared with normal mucosa [4, 8]	Staining of normal gastric mucosa site [5]	Staining of stomach cancer site [5]	Photon dose necessary to obtain fluorescent images compared to non-staining (mucosal surfaces)	Excitation by multiphoton laser and brightness of image (Large intestine)	Image quality of stained cells [6]	Image quality of stained cells [7]	LD50 ([3]; mouse, in vivo, po)
O=C([O-])c1c(Cl)c(Cl)c(Cl)c(Cl)c1-c1c2cc(Br)c(=O)c(Br)c-2oc2c(Br)c([O-])c(Br)cc12.[Na+].[Na+] [Red #104, phloxine]	preferentially stained epithelial cells/adenocytes	6.7 times	labeled GFP-Ras^V12-positive cancerized cell small aggregates more intensely than normal cells; also recorded: All GFP-Ras^V12 positive cells stained with Red #104	exhibit undifferentiated cell staining	310 mg/kg										
COc1cc(/C=C/C(=O)CC(=O)/C=C/c2ccc(O)c(OC)c2)ccc1O [curcumin]	intensely stained epithelial cells/adenocytes and faintly stained connective tissue/capillaries					stained cancer lesion sites much more intensely than normal mucosa	stained the cancer lesion site significantly more intensely than the normal mucosa	stained the cancer lesion site significantly more intensely than the normal mucosa	the circularly arranged normal epithelial cells are stained	cancer cells are stained	3%	strongly excited by a multiphoton laser and provided bright images	an image with sufficient brightness and contrast for diagnosis was obtained	an image with sufficient brightness and contrast for diagnosis was obtained	
O=C1/C(=C/c2ccc(O)c(O)c2)Oc2cc(O)ccc21 [Sulfuretin]	intensely stained epithelial cells/adenocytes and faintly stained connective tissue/capillaries					stained cancer lesion sites much more intensely than normal mucosa		stained the cancer lesion site significantly more intensely than the normal mucosa			4%	strongly excited by a multiphoton laser and provided bright images			300 mg/kg
